This is an account of results in patent US12479834B2, “Phenol compound or salt thereof” (TAIHO PHARMACEUTICAL CO., LTD., priority 2019, dated 2025).

As a reminder, the IC50 is the concentration that inhibits the measured activity by half. Higher therefore signals lower potency.

The target of one assay is T1, KRAS G12C mutant (Homo sapiens, UniProt P01116, G12C).
T1 construct: 50 μM G12C K-Ras4B (1-169) protein and 1 mM BODIPY® FL GDP; His tag (N, cleaved yes); made in house; host or cells: E. coli BL21 (DE3)
The experiment in a line: Inhibition of SOS1-mediated nucleotide (GDP-GTP) exchange reaction of KRAS G12C mutant, BODIPY FL GDP fluorescence. In kind it is biochemical. The following applies: preincubated 25° C. 4 hours with 25 nM KRAS G12C bound with BODIPY FL GDP; SOS1 100 nM, GppNHp 1 μM, 30 minutes. The text has this:
(§1) SOS1 protein was expressed in E. coli strain BL21 (DE3) by synthesizing a nucleotide sequence encoding the amino acid sequence represented by GenPept ID NP_005624 as a sequence optimized for E. coli by use of GeneArt Technology (Life Technologies Corp.) such that the protein was N-terminally His-tagged and fused with a TEV protease recognition sequence (ENLYFQG). The expressed His-tagged SOS1 (564-1049) was purified through a Ni column, then cleaved at its tag with N-terminally His-tagged TEV protease, and passed through a Ni column again to recover a flow-through fraction to obtain the protein.
Each compound was studied for its inhibitory effect on the exchange reaction of GDP into GppNHp in BODIPY® FL bound with the KRAS G12C mutant by fluorescence measurement using the G12C K-Ras4B (1-169) protein and the SOS1 protein.
For the preparation of the KRAS G12C mutant bound with BODIPY® FL GDP, first, 50 μM G12C K-Ras4B (1-169) protein and 1 mM BODIPY® FL GDP (Invitrogen Corp., G22360) were incubated for 1 hour in a buffer solution (20 mM Tris-HCl (pH 7.5), 50 mM NaCl, and 1 mM DTT) in ice in the presence of 2.5 mM EDTA. Then, MgCl2 was added thereto at a final concentration of 10 mM, then the mixture was incubated at room temperature for 30 minutes, and then, the protein was passed through a NAP-5 column for removal of free nucleotides and used for compound evaluation.
For the measurement of the inhibitory activity of compounds against nucleotide exchange reaction, first, the compound of the present invention was serially diluted with DMSO. Subsequently, the serially diluted solution of the compound of the present invention in DMSO (final concentration of DMSO: 5%) and the KRAS G12C mutant (25 nM) bound with BODIPY® FL GDP were added into a reaction buffer solution (20 mM Tris-HCl (pH 7.5), 100 mM NaCl, 1 mM MgCl2, 2 mM DTT, and 0.1% Tween 20), and the mixture was preincubated at 25° C. for 4 hours. Then, Son of Sevenless Homolog 1 (SOS1, amino acid region: 564-1049) and GppNHp (GMPPNP, Jena Bioscience GmbH, NU-401-50) were added thereto at final concentrations of 100 nM and 1 μM, respectively, and the mixture was reacted for 30 minutes. The change in fluorescence intensity of BODIPY® FL (excitation wavelength: 485 nm, fluorescence wavelength: 520 nm) between immediately after the start of reaction and after 30 minutes from the start of reaction was standardized, and then, the compound concentration at which 50% inhibition was achieved was calculated as IC50 (nM) when the signal value for only DMSO was defined as 0% inhibition and the signal value for no addition of GppNHp was defined as 100% inhibition.

The target of a further assay is T2, G12C K-Ras4B (1-169) (Homo sapiens, UniProt P01116, G12C).
T2 construct: G12C K-Ras4B (1-169) protein, which was a KRAS G12C mutant; His tag (N, cleaved yes); made in house; host or cells: E. coli BL21 (DE3)
Nature of the assay: Binding to KRAS G12C mutant, compound binding rate by LC-MS. The following applies: final compound concentration 2 μM, 1 μM protein, 2 hours at 25° C.
From the text: as §1, with “K-Ras4B (1-169)” for “SOS1”, “NP_004976” for “NP_005624”, “K-Ras4B (1-169)” for “SOS1 (564-1049)”, “fraction, which was further purified by anion-exchange chromatography” for “fraction”, “protein. G12C K-Ras4B (1-169) protein, which was a KRAS G12C mutant, was obtained in the same way as in the K-Ras4B(1-169) protein except that glycine at position 12 of the amino acid sequence represented by GenPept ID NP_004976 was mutated to cysteine.” for “protein.”
The K-Ras4B (1-169) protein and the G12C K-Ras4B (1-169) protein were mixed and diluted with a buffer solution (1×TBS and 0.1 mM TCEP) to prepare a protein solution containing 1 μM each of the proteins. Each test compound was dissolved at 10 mM in DMSO and further diluted 10-fold with DMSO to make a 1 mM solution. Then, the solution was diluted 5-fold with DMSO to make a 200 μM solution. The 200 μM solution was further diluted 5-fold to make a […] solution. 1 μL of the 40 μM test compound was added to 19 μL of the 1 μM protein solution such that the final compound concentration was 2 μM. The mixture was stored for 2 hours in an incubator of 25° C., and the reaction was terminated by the addition of 80 μL of a 1×TBS solution containing 0.2% formic acid, followed by LC-MS measurement.
The LC-MS measurement was performed by using Xevo G2-S Q-Tof manufactured by Waters Corp., performing reverse-phase chromatography with a desalting column, and obtaining mass spectra of positive ions by electrospray. For the mass spectra, spectra of polyvalent ions were collectively converted to molecular weights by the MaxEnt technique using OpenLynx software, and then, a compound binding rate was obtained from the ratio of […].
The binding rates of test compounds having a final compound concentration of 2 μM for G12C K-Ras4B (1-169) are shown in the table below. The binding rate for G12C K-Ras4B (1-169) is rated “A” for 80% or more, “B” for 60% or more and less than 80%, “C” for 40% or more and less than 60%, “D” for 20% or more and less than 40%, and “E” for less than 20%.

As for `C=CC(=O)N1CC(N(C)C(=O)c2csc(CNc3cc(C(C)(C)C)c(Cl)cc3O)n2)C1` [Example 32, N-(1-Acryloylazetidin-3-yl)-2-(((5-(tert-butyl)-4-chloro-2-hydroxyphenyl)amino)methyl)-N-methylthiazole-4-carboxamide], at KRAS G12C mutant, the midpoint of inhibition, the IC50, lay at 64 nM. Also, the “binding rate for G12C K-Ras4B (1-169)” value on G12C K-Ras4B (1-169) was “B (60% or more and less than 80%)”.
As to `C=CC(=O)N1CC(NC(=O)c2cnc(CNc3nc([Si](C)(C)C)c(Cl)cc3O)n2C)C1` [Example 84, N-(1-Acryloylazetidin-3-yl)-2-(((5-chloro-3-hydroxy-6-(trimethylsilyl)pyridin-2-yl)amino)methyl)-1-methyl-1H-imidazole-5-carboxamide], inhibition against KRAS G12C mutant was half-maximal at 63 nM (IC50). For the same compound, at G12C K-Ras4B (1-169), the “binding rate for G12C K-Ras4B (1-169)” value is reported as “A (80% or more)”.
Turning to `C=CC(=O)N1CC(NC(=O)c2cnc(C(C)Nc3cc(C(C)(C)C)c(Cl)cc3O)n2C)C1` (stereo not shown) [Example 80, N-(1-Acryloylazetidin-3-yl)-2-(1-((5-(tert-butyl)-4-chloro-2-hydroxyphenyl)amino)ethyl)-1-methyl-1H-imidazole-5-carboxamide], the IC50 against KRAS G12C mutant came to 104 nM. The “binding rate for G12C K-Ras4B (1-169)” value at G12C K-Ras4B (1-169) is “B (60% or more and less than 80%)”.
`C=CC(=O)N1CC(NC(=O)c2ccc(CNc3cc(C(C)(C)C)c(Cl)cc3O)cc2Cl)C1` [Example 22, N-(1-Acryloylazetidin-3-yl)-4-(((5-(tert-butyl)-4-chloro-2-hydroxyphenyl)amino)methyl)-2-chlorobenzamide] gave an IC50 against KRAS G12C mutant of 2380 nM. Also, the “binding rate for G12C K-Ras4B (1-169)” value at G12C K-Ras4B (1-169) is “D (20% or more and less than 40%)”.
At KRAS G12C mutant, `C=CC(=O)N1CC(NC(=O)c2nc(CNc3cc(C(C)(C)C)c(Cl)cc3O)cn2C)C1` [Example 19, N-(1-Acryloylazetidin-3-yl)-4-(((5-(tert-butyl)-4-chloro-2-hydroxyphenyl)amino)methyl)-1-methyl-1H-imidazole-2-carboxamide] yielded an IC50 of 233 nM. For the same compound, on G12C K-Ras4B (1-169), the “binding rate for G12C K-Ras4B (1-169)” value is reported as “A (80% or more)”.
The like results for `C=CC(=O)N1CC(NC(=O)c2cnc(CNc3cc([Si](C)(C)C)c(Cl)cc3O)n2C)C1` [Example 62, N-(1-Acryloylazetidin-3-yl)-2-(((4-chloro-2-hydroxy-5-(trimethylsilyl)phenyl)amino)methyl)-1-methyl-1H-imidazole-5-carboxamide] were, in that order, 11 nM and “A (80% or more)”.
As to `C=CC(=O)N1CC(NC(=O)c2ccc(CNc3cc(C4CC4(F)F)c(Cl)cc3O)o2)C1` (stereo not shown) [Example 51, N-(1-Acryloylazetidin-3-yl)-5-(((4-chloro-5-(2,2-difluorocyclopropyl)-2-hydroxyphenyl)amino)methyl)furan-2-carboxamide], the IC50 on KRAS G12C mutant was 763 nM. At G12C K-Ras4B (1-169), the “binding rate for G12C K-Ras4B (1-169)” value was “C (40% or more and less than 60%)”.
As for `C=CC(=O)N1CC(NC(=O)c2ccc(CNc3cc(C4CC4)c(Cl)cc3O)o2)C1` [Example 52, N-(1-Acryloylazetidin-3-yl)-5-(((4-chloro-5-cyclopropyl-2-hydroxyphenyl)amino)methyl)furan-2-carboxamide], inhibition on KRAS G12C mutant was half-maximal at 2090 nM (IC50). Moreover, the “binding rate for G12C K-Ras4B (1-169)” value on G12C K-Ras4B (1-169) is “D (20% or more and less than 40%)”.
With `C=CC(=O)N1CC(NC(=O)c2c(C)nc(C(O)c3cc(C(C)(C)C)c(F)cc3O)n2C)C1` (stereo not shown) [Example 93, N-(1-Acryloylazetidin-3-yl)-2-((5-(tert-butyl)-4-fluoro-2-hydroxyphenyl) (hydroxy)methyl)-1,4-dimethyl-1H-imidazole-5-carboxamide], half-maximal inhibition against KRAS G12C mutant (IC50) was put at 500 nM. Besides, on G12C K-Ras4B (1-169), the “binding rate for G12C K-Ras4B (1-169)” value is “E (less than 20%)”.
Take `CN(C)C/C=C/C(=O)N1CC(N(C)C(=O)c2ccc(CNc3cc(C(C)(C)C)c(Cl)cc3O)o2)C1` [Example 87, (E)-5-(((5-(tert-Butyl)-4-chloro-2-hydroxyphenyl)amino)methyl)-N-(1-(4-(dimethylamino)but-2-enoyl)azetidin-3-yl)-N-methylfuran-2-carboxamide]: the midpoint of inhibition on KRAS G12C mutant, the IC50, lay at 193 nM. Further, the “binding rate for G12C K-Ras4B (1-169)” value at G12C K-Ras4B (1-169) was “A (80% or more)”.
On the same counts, the results for `C=CC(=O)N1CC(NC(=O)c2nc(CNc3cc(C(C)(C)C)c(Cl)cc3O)cs2)C1` [Example 10, N-(1-Acryloylazetidin-3-yl)-4-(((5-(tert-butyl)-4-chloro-2-hydroxyphenyl)amino)methyl)thiazole-2-carboxamide] are 67 nM and “A (80% or more)”.
`C=CC(=O)N1CC(NC(=O)c2cnc(CNc3cc(CC(F)(F)F)c(Cl)cc3O)n2C)C1` [Example 56, N-(1-Acryloylazetidin-3-yl)-2-(((4-chloro-2-hydroxy-5-(2,2,2-trifluoroethyl)phenyl)amino)methyl)-1-methyl-1H-imidazole-5-carboxamide]: on KRAS G12C mutant, it took 599 nM to reach half-maximal inhibition (IC50). In addition, the “binding rate for G12C K-Ras4B (1-169)” value at G12C K-Ras4B (1-169) is “E (less than 20%)”.
In turn, `C=CC(=O)N1CC[C@@H](N(C)C(=O)c2ccc(CNc3cc(C(C)(C)C)c(Cl)cc3O)o2)C1` [Example 6, (R)—N-(1-Acryloylpyrrolidin-3-yl)-5-(((5-(tert-butyl)-4-chloro-2-hydroxyphenyl)amino)methyl)-N-methylfuran-2-carboxamide] returned an IC50 against KRAS G12C mutant of 164 nM. In addition, at G12C K-Ras4B (1-169), the “binding rate for G12C K-Ras4B (1-169)” value was “D (20% or more and less than 40%)”.
At KRAS G12C mutant, `C=CC(=O)N1CC(N(C)C(=O)c2coc(CNc3cc(C(C)(C)C)c(Cl)cc3O)c2)C1` [Example 33, N-(1-Acryloylazetidin-3-yl)-5-(((5-(tert-butyl)-4-chloro-2-hydroxyphenyl)amino)methyl)-N-methylfuran-3-carboxamide] had an IC50 of 1490 nM. For the same compound, the “binding rate for G12C K-Ras4B (1-169)” value on G12C K-Ras4B (1-169) is recorded as “E (less than 20%)”.
